Entries after “also recorded” stand apart in the source; their conditions may differ. Read-outs that look alike come from different tables or passages of the source. Ends that are not written are not given here.
Legend:
S. pneumoniae = assay: MIC of antimicrobial peptides (Table 4); assay type: cell-based, Streptococcus pneumoniae
C. difficile = assay: MIC of antimicrobial peptides (Table 4); assay type: cell-based, Clostridium difficile
S. mutans = assay: MIC of antimicrobial peptides (Table 4); assay type: cell-based, Streptococcus mutans
MRSA = assay: MIC of antimicrobial peptides (Table 4); assay type: cell-based, Methicillin-resistant Staphylococcus aureus
S. epidermidis = assay: MIC of antimicrobial peptides (Table 4); assay type: cell-based, Staphylococcus epidermidis
E. coli = assay: MIC of antimicrobial peptides (Table 4); assay type: cell-based, Escherichia coli
P. aeruginosa = assay: MIC of antimicrobial peptides (Table 4); assay type: cell-based, Pseudomonas aeruginosa
B. subtilis = assay: MIC of antimicrobial peptides (Table 4); assay type: cell-based, Bacillus subtilis
T. rubrum = assay: MIC of antimicrobial peptides (Table 4); assay type: cell-based, Trichophyton rubrum
A. niger = assay: MIC of antimicrobial peptides (Table 4); assay type: cell-based, Aspergillus niger
C. jeikeium = assay: MIC of antimicrobial peptides (Table 4); assay type: cell-based, Corynebacterium jeikeium
[1] = tested on: bacteria, fungi, and/or yeasts; assay type: binding
A. baumannii = assay: MIC of antimicrobial peptides (Table 4); assay type: cell-based, Acinetobacter baumannii
C. albicans = assay: MIC of antimicrobial peptides (Table 4); assay type: cell-based, Candida albicans
E. faecalis = assay: MIC of antimicrobial peptides (Table 4); assay type: cell-based, Enterococcus faecalis
[2] = microorganism(s) listed as target(s) of the targeting peptide, wrapped target lists given cell by cell

ASKQASKQASKQASKQASKQASRSLKNHLL [PF-523]
Organism MIC (S. pneumoniae): S. pneumoniae, 50 μM

CGKLLEQKNFFLKTR [PF-521]
Organism MIC (S. pneumoniae): S. pneumoniae, 50 μM

FELVDWLETNLGKILKSKSA-NH2 [PF-522]
Organism MIC (C. difficile): C. difficile, 25 μM

FESKILNASKELDKEKKVNTALSFNSHQDFAKAYQNGKI [PF-606]
Organism MIC (S. mutans): S. mutans, 50 μM | Organism MIC (MRSA): MRSA, 50 μM | Organism MIC (S. epidermidis): S. epidermidis, 50 μM | Organism MIC (E. coli): E. coli, 50 μM | Organism MIC (S. pneumoniae): S. pneumoniae, 50 μM

FIRKFLQKLHL [K-16]
Organism MIC (S. mutans): S. mutans, 8 μM | Organism MIC (P. aeruginosa): P. aeruginosa, 12.5 μM | Organism MIC (MRSA): MRSA, 25 μM

FQKPFTGEEVEDFQDDDEIPTII [PF-437]
Organism MIC (S. pneumoniae): S. pneumoniae, 50 μM

GIFKKFVKILYKVQKL [K-22]
Organism MIC (S. mutans): S. mutans, 8 μM

GILKKLFTKVF [K-13]
Organism MIC (S. mutans): S. mutans, 16 μM

GIVLIGLKLIPLLANVLR [PF-322]
Organism MIC (B. subtilis; B. subtilis): B. subtilis, 50 μM

GLGRVIGRLIKQIIWRR [K-1]
Organism MIC (S. mutans): S. mutans, 25 μM

GSVIKKRRKRMAKKKHRKLLKKTRIQRRRAGK [PF-527]
Organism MIC (P. aeruginosa): P. aeruginosa, 50 μM | Organism MIC (MRSA): MRSA, 50 μM | Organism MIC (T. rubrum): T. rubrum, 25 μM | Organism MIC (A. niger): A. niger, 50 μM | Organism MIC (B. subtilis): B. subtilis, 12.5 μM | Organism MIC (C. jeikeium): C. jeikeium, 6.25 μM | Organism MIC (S. epidermidis): S. epidermidis, 25 μM | Target(s) [1]: S. epidermidis, M. luteus, P. mirabilis,; also recorded: E. coli, P. aeruginosa,; also recorded: MRSA, S. pneumoniae, E. faecalis,; also recorded: C. jeikeium, C. jejuni

GWLKMFKKIIGKFGKF [K-21]
Organism MIC (S. mutans): S. mutans, 8 μM

KFQGEFTNIGQSYIVSASHMSTSLNTGK [PF-583]
Organism MIC (MRSA): MRSA, 50 μM | Organism MIC (S. epidermidis): S. epidermidis, 50 μM | Target(s) [1, 2]: C. albicans hyphae

KFSDQIDKGQDALKDKLGDL [PF-525]
Organism MIC (A. niger): A. niger, 50 μM | Organism MIC (S. pneumoniae): S. pneumoniae, 50 μM

KILKFLFKKVF [K-8]
Organism MIC (S. mutans): S. mutans, 4 μM

KILKFLFKQVF [K-11]
Organism MIC (S. mutans): S. mutans, 4 μM

KILKKLFKFVF [K-12]
Organism MIC (S. mutans): S. mutans, 8 μM

KKFKKFKVLKIL [K-18]
Organism MIC (S. mutans): S. mutans, 16 μM

KLFKFLRKHLL [K-10]
Organism MIC (S. mutans): S. mutans, 4 μM

KNKKQTDILEKVKEILDKKKKTKSVGQKLY [PF-538]
Organism MIC (A. baumannii): A. baumannii, 25 μM | Organism MIC (C. difficile): C. difficile, 25 μM

LGLTAGVAYAAQPTNQPTNQPTNQPTNQPTNQPTNQPRW-NH2 [PF-520]
Organism MIC (S. pneumoniae): S. pneumoniae, 50 μM

LLKLLKLKKLKF [K-19]
Organism MIC (S. mutans): S. mutans, 16 μM

LRKFLHKLF [K-14]
Organism MIC (S. mutans): S. mutans, 8 μM

LRKNLRWLF [K-15]
Organism MIC (S. mutans): S. mutans, 4 μM

LSEMERRRLRKRA-NH2 [PF-529]
Organism MIC (A. niger): A. niger, 50 μM | Organism MIC (S. pneumoniae): S. pneumoniae, 50 μM

LSLATFAKIFMTRSNWSLKRFNRL [PF-278]
Organism MIC (T. rubrum): T. rubrum, 50 μM | Organism MIC (S. epidermidis): S. epidermidis, 50 μM | Organism MIC (C. albicans): C. albicans, 50 μM

LVLRICTDLFTFIKWTIKQRKS [PF-497]
Organism MIC (B. subtilis; B. subtilis): B. subtilis, 50 μM

MGIIAGIIKFIKGLIEKFTGK [PF-006]
Organism MIC (MRSA): MRSA, 50 μM | Organism MIC (A. baumannii): A. baumannii, 50 μM | Organism MIC (B. subtilis; B. subtilis): B. subtilis, 25 μM | Target(s) [1, 2]: S. epidermidis, M. luteus, E. coli,; also recorded: P. aeruginosa, MRSA, E. faecalis,; also recorded: C. jeikeium, C. jejuni

MIRIRSPTKKKLNRNSISDWKSNTSGRFFY [PF-283]
Organism MIC (T. rubrum): T. rubrum, 50 μM | Organism MIC (B. subtilis; B. subtilis): B. subtilis, 50 μM | Organism MIC (S. epidermidis): S. epidermidis, 50 μM

MKRRRCNWCGKLFYLEEKSKEAYCCKECRKKAKKVKK [PF-307]
Organism MIC (T. rubrum): T. rubrum, 50 μM | Organism MIC (B. subtilis; B. subtilis): B. subtilis, 50 μM | Organism MIC (C. albicans): C. albicans, 50 μM

MRFGSLALVAYDSAIKHSWPRPSSVRRLRM [PF-672]
Organism MIC (MRSA): MRSA, 1.56 μM | Organism MIC (T. rubrum): T. rubrum, 0.78 μM | Organism MIC (A. niger): A. niger, 3 μM | Organism MIC (B. subtilis; B. subtilis): B. subtilis, 0.78 μM | Organism MIC (S. epidermidis): S. epidermidis, 0.39 μM | Organism MIC (C. albicans): C. albicans, 1.56 μM | Organism MIC (E. faecalis): E. faecalis, 3.13 μM

NYAVVSHT [PF-209]
Organism MIC (MRSA): MRSA, 50 μM

NYRLVNAIFSKIFKKKFIKF [K-7]
Organism MIC (S. mutans): S. mutans, 12.5 μM

PDAPRTCYHKPILAALSRIVVTDR [PF-524]
Organism MIC (S. pneumoniae): S. pneumoniae, 50 μM

RESKLIAMADMIRRRI-NH2 [PF-545]
Organism MIC (MRSA): MRSA, 50 μM | Organism MIC (A. niger): A. niger, 50 μM | Organism MIC (B. subtilis; B. subtilis): B. subtilis, 25 μM

RRGCTERLRRMARRNAWDLYAEHFY [PF-148]
Organism MIC (A. niger): A. niger, 50 μM | Organism MIC (B. subtilis; B. subtilis): B. subtilis, 50 μM | Target(s) [1, 2]: S. epidermidis, M. luteus, P. mirabilis,; also recorded: E. coli, P. aeruginosa,; also recorded: C. albicans, MRSA, S. pneumoniae,; also recorded: E. faecalis, C. jeikeium,; also recorded: C. jejuni, M. smegmatis

SFMPEIQKNTIPTQMK [PF-512]
Organism MIC (S. pneumoniae): S. pneumoniae, 50 μM

SKFKVLRKIIIKEYKGELMLSIQKQR [PF-530]
Organism MIC (A. baumannii): A. baumannii, 25 μM

SLQSQLGPCLHDQRH [PF-448]
Organism MIC (A. niger): A. niger, 25 μM | Organism MIC (S. pneumoniae): S. pneumoniae, 50 μM

TKKIELKRFVDAFVKKSYENYILERELKKLIKAINEELPTK [PF-600]
Organism MIC (E. coli): E. coli, 50 μM | Organism MIC (S. pneumoniae): S. pneumoniae, 50 μM

VLPFPAIPLSRRRACVAAPRPRSRQRAS [PF-168]
Organism MIC (MRSA): MRSA, 50 μM | Organism MIC (T. rubrum): T. rubrum, 50 μM | Organism MIC (A. niger): A. niger, 50 μM | Target(s) [1, 2]: yeast cells; also recorded: S. epidermidis, M. luteus, E. coli,; also recorded: C. albicans, MRSA, C. jeikeium,; also recorded: C. jejuni

VMQSLYVKPPLILVTKLAQQN [PF-511]
Organism MIC (S. pneumoniae): S. pneumoniae, 50 μM

VYRKRKSILKIYAKLKGWH [K-2]
Organism MIC (S. mutans): S. mutans, 12.5 μM

VYSFLYVLVIVRKLLSMKKRIERL [PF-499]
Organism MIC (B. subtilis; B. subtilis): B. subtilis, 50 μM

WSRVPGHSDTGWKVWHRW-NH2 [PF-547]
Organism MIC (S. mutans): S. mutans, 12.5 μM | Organism MIC (T. rubrum): T. rubrum, 25 μM | Organism MIC (B. subtilis; B. subtilis): B. subtilis, 25 μM

YIQFHLNQQPRPKVKKIKIFL-NH2 [PF-531]
Organism MIC (S. mutans): S. mutans, 12.5 μM | Organism MIC (P. aeruginosa): P. aeruginosa, 50 μM | Organism MIC (A. baumannii): A. baumannii, 25 μM | Organism MIC (T. rubrum): T. rubrum, 50 μM | Organism MIC (A. niger): A. niger, 25 μM | Organism MIC (B. subtilis; B. subtilis): B. subtilis, 25 μM | Organism MIC (C. difficile): C. difficile, 12.5 μM | Organism MIC (C. jeikeium): C. jeikeium, 6.25 μM | Organism MIC (S. epidermidis): S. epidermidis, 50 μM

Reference: patent US20120003661A1, “METHODS AND DEVICES FOR THE SELECTIVE DETECTION OF MICROORGANISMS” (C3 JIAN, INC., priority 2010, published 2012)
